Where no end group is shown, it is not given here.
Legend:
Type in all cases: cell-based, human
[1] = test system: HaCat keratinocytes or MCF10A mammary epithelial cells; test: competition of LPA-induced haptotactic migration by GST fusion proteins or synthetic peptides (FIG. 10 summary); details: 0.1 to 30 μM, 3 μM LPA
Protocol: FIGS. 10A-C. Schematic summary of experiments using either recombinant GST fusion proteins or synthetic peptides to disrupt Sdc1-dependent coupling of HER2 to α6β4 integrin necessary for LPA-induced haptotactic migration. GST-fusion proteins or synthetic peptides were added at concentrations ranging from 0.1 to 30 μM to the culture medium of human HaCat keratinocytes or MCF10A mammary epithelial cells in the presence or absence of 3 μM LPA. The ability of the constructs to inhibit the migration of the cells to close a scratch wound in confluent monolayers was determined and expressed as the concentration of inhibitor necessary to cause 50% inhibition of cell migration. (FIG. 10A) Competition using recombinant GST-fusion proteins. GST-Sdc1 fusion proteins bearing truncations or mutations were assessed for their competitive activity. […] (FIG. 10B) Competition with synthetic peptides. Peptides were purchased from commercial sources for testing as a putative synstatin inhibitory peptide (SSTNHER2). […] (FIG. 10C) Schematic representation of the active site in Sdc1. The active site is shown as a juxtamembrane site in the ectodomain of Sdc1. TM is the transmembrane domain and CYTO is the cytoplasmic domain. The sequence of a peptide derived from this site (SSTNHER2) is shown along with its homology across other mammalian Sdc1 species. The human STTNHER2 sequence is SEQ ID NO:23; the homology for STTNHER2 across mammals is SEQ ID NO:24.
(§1) HaCat or MCF10A cells were grown to confluence on 48 well-plates were starved for 6 hr by serum deprivation followed by introduction of a scratch wound in the monolayer using 200 μl pipette tip. Cells were cultured an additional 18 hr in DMEM containing mAb 3E1 (10 μg/ml) and goat anti-mouse IgG (50 μg/ml), EGF (10 ng/ml) or HGF (20 ng/ml) to cause cell migration in the presence or absence of inhibitors. Images were acquired using a PlanApo 20 (0.75 numerical aperture) objective and a Photometrics CoolSnap ES camera on a Nikon Eclipse TE2000U microscopy system and wound closure quantified.

HaCat keratinocytes = test: scratch wound haptotaxis induced by LPA and clustering of α6β4 integrin; details: LPA + α6β4 clustered with mAb 3E1 and secondary antibody, AG825 10 μM, Iressa 1 μM
Description: FIG. 6A-D. Sdc1 is required for HER2/α6β4-dependent HaCat keratinocyte migration. (FIG. 6A) HaCat keratinocytes deposit laminin 332 (LN332) and migrate upon this using α3β1 and α6β4 integrins to close a scratch wound in the monolayer when stimulated to undergo chemotaxis in response to EGF. Alternatively, migration is induced by clustering the integrin (using mAb 3E1 against the integrin+a secondary antibody to cluster the first antibody and thus the entire complex) in the presence of LPA. This mimics the clustering that occurs when the cells engage LN332 and is referred to as haptotaxis. […] (FIG. 6B) Haptotaxis, stimulated by LPA and clustering of α6β4 integrin as described in FIG. 6A, is blocked by antibody directed against the α3β1 integrin or by BM165 which targets the binding site for α3β1 in LN332. […] (FIG. 6C) The potential roles of Sdc1 or Sdc4 in haptotaxis is tested by silencing their expression, together with attempting to rescue with either wild-type mouse Sdc1 or Sdc4, or mouse mutants unable to engage the β4 cytoplasmic domain (mSdc1ΔC2 or mSdc4ΔC2). Haptotaxis is blocked by silencing endogenous Sdc1, and this cannot be rescued by Sdc1ΔC2 that fails to engage the α6β4 integrin. Silencing Sdc4 also disrupts migration, but this traces to its role in activity of the α3β1 integrin and not a role in engaging the α6β4 integrin, as it can be rescued by mSdc4ΔC2 that fails to associate with the α6β4 integrin. (FIG. 6D) Immunoprecipitation of either native mSdc4 or mSdc4[…]C2 confirms that the mSdc4ΔC2 mutant no longer associates with the α6β4 integrin, but does with the α3β1 integrin. […]
HaCat or MCF10A cells were grown to confluence on 48 well-plates were starved for 6 hr by serum deprivation followed by introduction of a scratch wound in the monolayer using 200 μl pipette tip. […] Images were acquired using a PlanApo 20 (0.75 numerical aperture) objective and a Photometrics CoolSnap ES camera on a Nikon Eclipse TE2000U microscopy system and wound closure quantified. […]

[2] = test system: MCF10A mammary epithelial cells; test: scratch wound haptotaxis induced by clustering the α6β4 integrin; details: α6β4 integrin clustered
Protocol: FIG. 9. Sdc1 ectodomain fragments and β4 dominant-negative mutant specific for Sdc1/α6β4/HER2 block MCF10A mammary epithelial cell migration. Haptotaxis of MCF10A human mammary epithelial cells induced by clustering the α6β4 integrin in a scratch wound assay is used to test the efficacy of inhibitors that target the Sdc1 mechanism. Cells are incubated either with entire recombinant syndecan ectodomains (Sdc1 ectodomain (S1ED) or Sdc4 ectodomain (S4ED) as a control), or an active fragment of mouse S1ED (S1ED^200-252) containing the inhibitory site.
as §1
The inventor used this assay to further truncate the S1ED recombinant proteins in order to find the smallest peptide that retains full inhibitory activity (e.g., SSTNHER2). The inventor tested mouse and human S1ED and find that they compete equally. […]

A431 cells = test: A431 cell attachment and spreading on LN332; details: 2 hr, mAb13 30 μg/ml, heparinase III 0.4 CU/ml, Sdc1 siRNA 100 nM
Protocol: FIGS. 2A-E. Requirement of syndecan-1 for A431 cell spreading on LN332. A431 […] cells plated on slides coated with 10 μg/ml LN332 (FIG. 2A) without treatment; (FIG. 2B) with blocking antibody 3E1 to α6β4; (FIG. 2C) prior treatment with heparinase III; or (FIG. 2D) prior treatment with siRNA specific for human Sdc1. (FIG. 2E) Quantification of spread cells plated on LN332 and treated with blocking antibody to β1 integrin (mAb13 30 μg/ml) or control IgG (20 μg/ml), 3E1 blocking antibody (20 ug/ml) to β4 integrin, heparinase III (0.4 CU/ml) or human Sdc1 siRNA (100 nM). Data represent triplicate experiments +/−S.D. (Wang et al., 2010).
Nitrocellulose-coated 10-well glass slides (Erie Scientific, Portsmouth, N.H.) were prepared as described by Beauvais and. Rapraeger (2010). Wells of slide were coated at 37° C. for 2 h with mAb 3E1 (3 μg/ml), diluted in phosphate-buffered saline (CMF-PBS: 135 mM NaCl, 2.7 mM KCl, 10.2 mM Na2HPO47H2O, and 1.75 mM KH2PO4, pH 7.4), and blocked with serum-free Hepes-buffered DMEM (pH 7.4) containing 0.1% heat-denatured bovine serum albumin (plating medium). Cells were lifted with trypsin (0.25% w/v), washed with DMEM, and regenerated in suspension for 1 h at 37° C. in DMEM containing 10% fetal bovine serum. Cells were then plated in wells (50 μl/well) in plating medium at 10^5 cells/ml. […]

Molecule	competitive (inhibitory) activity on haptotactic migration [1]	haptotaxis (migration to close a scratch wound) (HaCat keratinocytes)	also measured
210-236: truncated synthetic peptide, amino acids 210-236 of human Sdc1 (DFTFETSGENTAVVAVEPDRRNQSPVD; UniProt P18827 210-236, looked up, fragment)	loss of activity	–	–
214-240: truncated synthetic peptide, amino acids 214-240 of human Sdc1 (ETSGENTAVVAVEPDRRNQSPVDQGAT; UniProt P18827 214-240, looked up, fragment)	loss of activity	–	–
COc1cc(/C=C(\C#N)C(N)=O)cc(CSc2nc3ccccc3s2)c1O [AG825]	–	blocks migration	–
COc1cc2ncnc(Nc3ccc(F)c(Cl)c3)c2cc1OCCCN1CCOCC1 [Iressa]	–	without effect	–
S1ED^200-252: active fragment of mouse S1ED containing the inhibitory site, recombinant fusion protein (QLPAGEGSGEQDFTFETSGENTAVAAVEPGLRNQPPVDEGATGASQSLLDRKE; also: recombinant fusion protein, partner not given here; UniProt P18828 200-252, looked up, fragment)	–	–	haptotaxis (migration to close a scratch wound) [2]: competes for haptotaxis
heparinase: enzyme treatment that blocks the ability of Sdc1 to bind LN332 (protein, UniProt Q59289 25-659, looked up) Heparin-sulfate lyase: QSSSITRKDFDHINLEYSGLEKVNKAVAAGNYDDAAKALLAYYREKSKAREPDFSNAEKPADIRQPIDKVTREMADKALVHQFQPHKGYGYFDYGKDINWQMWPVKDNEVRWQLHRVKWWQAMALVYHATGDEKYAREWVYQYSDWARKNPLGLSQDNDKFVWRPLEVSDRVQSLPPTFSLFVNSPAFTPAFLMEFLNSYHQQADYLSTHYAEQGNHRLFEAQRNLFAGVSFPEFKDSPRWRQTGISVLNTEIKKQVYADGMQFELSPIYHVAAIDIFLKAYGSAKRVNLEKEFPQSYVQTVENMIMALISISLPDYNTPMFGDSWITDKNFRMAQFASWARVFPANQAIKYFATDGKQGKAPNFLSKALSNAGFYTFRSGWDKNATVMVLKASPPGEFHAQPDNGTFELFIKGRNFTPDAGVFVYSGDEAIMKLRNWYRQTRIHSTLTLDNQNMVITKARQNKWETGNNLDVLTYTNPSYPNLDHQRSVLFINKKYFLVIDRAIGEATGNLGVHWQLKEDSNPVFDKTKNRVYTTYRDGNNLMIQSLNADRTSLNEEEGKVSYVYNKELKRPAFVFEKPKKNAGTQNFVSIVYPYDGQKAPEISIRENKGNDFEKGKLNLTLTINGKQQLVLVP	–	–	cell spreading on LN332 (A431 cells): disrupted
